Columns and labels:
intracellular HBV DNA = assay: Real-time PCR for intracellular HBV DNA in HepAD38 cells; assay type: cell-based; conditions: Hepatitis B virus, HePAD38, 65 h, 65 hours treatment
[1] = Cell viability assay (EZ-Cytox), cytotoxicity; assay type: cell-based; conditions: human, HepAD38 cells; for viability at 65 h, 100 µM: read-out: Cytotoxicity % Livability (@100 μM)
Experimental: HepAD38 cells were cultured for 2 days in Dulbecco's Modified Eagle's medium (Welgene, LM001-05) supplemented with 10% FBS without tetracycline. […] After 65 hours of treatment, viability was measured using EZ-Cytox cell viability assay kit (Daeil Lab Service) according to the manufacturer's instructions. The absorbance was measured at 450 nm using a spectrophotometer (Spark, Tecan).

Protein = Protein (Hepatitis B virus genotype D subtype ayw, UniProt P03146); assay: Protein inhibition rate / EC50 (Table 1, no method described); assay type: biochemical; conditions: for inhibition at 3 µM: @3 μM (footnote *)
Protein, sequence (P03146 whole entry): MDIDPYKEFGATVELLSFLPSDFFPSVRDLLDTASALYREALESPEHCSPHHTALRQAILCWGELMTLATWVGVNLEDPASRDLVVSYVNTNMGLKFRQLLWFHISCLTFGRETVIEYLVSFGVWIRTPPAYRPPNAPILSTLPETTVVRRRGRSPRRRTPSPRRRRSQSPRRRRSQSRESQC

## COc1ccc(N(Cc2n[nH]c3c2CCC3)C(=O)Nc2ccc(F)c(Cl)c2)cc1 [Example 46, 3-(3-chloro-4-fluorophenyl)-1-(4-methoxyphenyl)-1-((1,4,5,6-tetrahydrocyclopenta[c]pyrazol-3-yl)methyl)urea]
Intracellular HBV DNA
  IC50: 0.0094 µM
[1]
  CC50 at 65 h: > 100 µM
  viability at 65 h, 100 µM: 100%
Protein
  EC50: 4.3 µM
  inhibition at 30 µM: 92.8%

## COc1ccc(N(Cc2n[nH]c3c2C2CCC3C2)C(=O)Nc2ccc(F)c(Cl)c2)cn1 (stereo not drawn) [Example 51, 3-(3-chloro-4-fluorophenyl)-1-(6-methoxypyridin-3-yl)-1-((4,5,6,7-tetrahydro-1H-4,7-methanoindazol-3-yl)methyl)urea]
Intracellular HBV DNA
  IC50: 0.035 µM
[1]
  CC50 at 65 h: > 50 µM
  viability at 65 h, 100 µM: 36.7%
Protein
  EC50: 3.4 µM
  inhibition at 30 µM: 87.1%

## COc1cc(OC)cc(N(Cc2n[nH]c3c2CCCC3)C(=O)Nc2ccc(F)c(Cl)c2)c1 [Example 117, 3-(3-chloro-4-fluorophenyl)-1-(3,5-dimethoxyphenyl)-1-((4,5,6,7-tetrahydro-1H-indazol-3-yl)methyl)urea]
Intracellular HBV DNA
  IC50: > 1.1 µM
[1]
  CC50 at 65 h: > 33 µM
  viability at 65 h, 100 µM: 3.2%
Protein
  inhibition at 30 µM: 7%

## COc1ccc(N(Cc2n[nH]c3c2CC(C(=O)O)CC3)C(=O)Nc2ccc(F)c(Cl)c2)cn1 (stereo not drawn) [Example 52, 3-((3-(3-chloro-4-fluorophenyl)-1-(6-methoxypyridin-3-yl)ureido)methyl)-4,5,6,7-tetrahydro-1H-indazole-5-carboxylic acid]
Intracellular HBV DNA
  IC50: > 1.1 µM
[1]
  CC50 at 65 h: > 100 µM
  viability at 65 h, 100 µM: 100%
Protein
  inhibition at 30 µM: 4%

## COc1ccc(N(Cc2n[nH]c3c2CCCC3)C(=O)Nc2ccc(F)c(Cl)c2)cc1 [Example 32, 3-(3-chloro-4-fluorophenyl)-1-(4-methoxyphenyl)-1-((4,5,6,7-tetrahydro-1H-indazol-3-yl)methyl)urea]
Intracellular HBV DNA
  IC50: 0.0099 µM
[1]
  CC50 at 65 h: 81.4 µM
  viability at 65 h, 100 µM: 4.1%
Protein
  EC50: 9.4 µM
  inhibition at 30 µM: 5%

## COc1ccc(N(Cc2cc[nH]n2)C(=O)Nc2ccc(F)c(Cl)c2)cc1 [Example 34, 1-((1H-pyrazol-3-yl)methyl)-3-(3-chloro-4-fluorophenyl)-1-(4-methoxyphenyl)urea]
Intracellular HBV DNA
  IC50: > 1.1 µM
[1]
  viability at 65 h, 100 µM: 92.9%
Protein
  inhibition at 30 µM: 55.2%

## COc1ccc(N(Cc2n[nH]c3c2CC(CO)CC3)C(=O)Nc2ccc(F)c(Cl)c2)cn1 (stereo not drawn) [Example 44, 3-(3-chloro-4-fluorophenyl)-1-((5-(hydroxymethyl)-4,5,6,7-tetrahydro-1H-indazol-3-yl)methyl)-1-(6-methoxypyridin-3-yl)urea]
Intracellular HBV DNA
  IC50: > 1.1 µM
[1]
  CC50 at 65 h: > 100 µM
  viability at 65 h, 100 µM: 100%
Protein
  inhibition at 30 µM: 58%

## COC(=O)C1CCc2[nH]nc(CN(C(=O)Nc3ccc(F)c(Cl)c3)c3ccc(OC)nc3)c2C1 (stereo not drawn) [Example 53, methyl 3-((3-(3-chloro-4-fluorophenyl)-1-(6-methoxypyridin-3-yl)ureido)methyl)-4,5,6,7-tetrahydro-1H-indazole-5-carboxylate]
Intracellular HBV DNA
  IC50: > 1.1 µM
[1]
  CC50 at 65 h: > 100 µM
  viability at 65 h, 100 µM: 58.9%
Protein
  inhibition at 30 µM: 20.1%

## COc1ccc(N(Cc2ccn(C)n2)C(=O)Nc2ccc(F)c(Cl)c2)cc1 [Example 35, 3-(3-chloro-4-fluorophenyl)-1-(4-methoxyphenyl)-1-((1-methyl-1H-pyrazol-3-yl)methyl)urea]
Intracellular HBV DNA
  IC50: > 1.1 µM
[1]
  viability at 65 h, 100 µM: 90.5%
Protein
  inhibition at 30 µM: 33.7%

## O=C(Nc1ccc(F)c(Cl)c1)N(Cc1n[nH]c2c1CCC2)c1ccc(O)cc1 [Example 114, 3-(3-chloro-4-fluorophenyl)-1-(4-hydroxyphenyl)-1-((1,4,5,6-tetrahydrocyclopenta[c]pyrazol-3-yl)methyl)urea]
Intracellular HBV DNA
  IC50: 0.014 µM
[1]
  CC50 at 65 h: 54.5 µM
  viability at 65 h, 100 µM: 7.9%
Protein
  EC50: 1.6 µM
  inhibition at 30 µM: 74.6%

## O=C(Nc1ccc(F)c(Cl)c1)N(Cc1n[nH]c2c1CCCC2)c1nncs1 [Example 133, 3-(3-chloro-4-fluorophenyl)-1-((4,5,6,7-tetrahydro-1H-indazol-3-yl)methyl)-1-(1,3,4-thiadiazol-2-yl)urea]
Intracellular HBV DNA
  IC50: 0.11 µM
[1]
  CC50 at 65 h: 74.2 µM
  viability at 65 h, 100 µM: 4.3%
Protein
  inhibition at 30 µM: 5%

## CCc1cc(CN(C(=O)Nc2ccc(F)c(Cl)c2)c2ccc(OC)nc2)n[nH]1 [Example 60, 3-(3-chloro-4-fluorophenyl)-1-((5-ethyl-1H-pyrazol-3-yl)methyl)-1-(6-methoxypyridin-3-yl)urea]
Intracellular HBV DNA
  IC50: 0.11 µM
[1]
  CC50 at 65 h: > 100 µM
  viability at 65 h, 100 µM: 76%
Protein
  EC50: 3 µM
  inhibition at 30 µM: 94.7%

## O=C(Nc1ccc(F)c(Cl)c1)N(Cc1n[nH]c2c1CCC2)c1ccon1 [Example 134, 3-(3-chloro-4-fluorophenyl)-1-(isoxazol-3-yl)-1-((1,4,5,6-tetrahydrocyclopenta[c]pyrazol-3-yl)methyl)urea]
Intracellular HBV DNA
  IC50: 0.069 µM
[1]
  CC50 at 65 h: 70.3 µM
  viability at 65 h, 100 µM: 6.5%
Protein
  EC50: 3.5 µM
  inhibition at 30 µM: 84.5%

## COc1ccc(N(Cc2n[nH]c3c2CS(=O)(=O)CC3)C(=O)Nc2ccc(F)c(Cl)c2)cn1 [Example 49, 3-(3-chloro-4-fluorophenyl)-1-((5,5-dioxido-1,4,6,7-tetrahydrothiopyrano[4,3-c]pyrazol-3-yl)methyl)-1-(6-methoxypyridin-3-yl)urea]
Intracellular HBV DNA
  IC50: > 1.1 µM
[1]
  CC50 at 65 h: > 100 µM
Protein
  inhibition at 30 µM: 72%

## COc1ccc(N(Cc2n[nH]c3c2CCC3C)C(=O)Nc2ccc(F)c(Cl)c2)cn1 (stereo not drawn) [Example 59, 3-(3-chloro-4-fluorophenyl)-1-(6-methoxypyridin-3-yl)-1-((6-methyl-1,4,5,6-tetrahydrocyclopenta[c]pyrazol-3-yl)methyl)urea]
Intracellular HBV DNA
  IC50: 0.013 µM
[1]
  CC50 at 65 h: > 100 µM
  viability at 65 h, 100 µM: 91.2%
Protein
  EC50: 4 µM
  inhibition at 30 µM: 94.9%

## COc1ccc(N(Cc2n[nH]c(C)c2C)C(=O)Nc2ccc(F)c(Cl)c2)cn1 [Example 57, 3-(3-chloro-4-fluorophenyl)-1-((4,5-dimethyl-1H-pyrazol-3-yl)methyl)-1-(6-methoxypyridin-3-yl)urea]
Intracellular HBV DNA
  IC50: 0.023 µM
[1]
  CC50 at 65 h: > 100 µM
  viability at 65 h, 100 µM: 93.2%
Protein
  EC50: 2 µM
  inhibition at 30 µM: 96.2%

## O=C(O)c1ccc(N(Cc2n[nH]c3c2CCCC3)C(=O)Nc2ccc(F)c(Cl)c2)cc1 [Example 131, 4-(3-(3-chloro-4-fluorophenyl)-1-((4,5,6,7-tetrahydro-1H-indazol-3-yl)methyl)ureido)benzoic acid]
Intracellular HBV DNA
  IC50: > 1.1 µM
[1]
  CC50 at 65 h: > 100 µM
  viability at 65 h, 100 µM: 100%
Protein
  EC50: 3.8 µM
  inhibition at 30 µM: 94.7%

## Cn1cc(N(Cc2n[nH]c3c2CCC3)C(=O)Nc2ccc(F)c(Cl)c2)ccc1=O [Example 65, 3-(3-chloro-4-fluorophenyl)-1-(1-methyl-6-oxo-1,6-dihydropyridin-3-yl)-1-((1,4,5,6-tetrahydrocyclopenta[c]pyrazol-3-yl)methyl)urea]
Intracellular HBV DNA
  IC50: > 1.1 µM
[1]
  CC50 at 65 h: > 100 µM
  viability at 65 h, 100 µM: 112%
Protein
  EC50: > 30 µM
  inhibition at 30 µM: 53.5%

## COc1ccc(N(Cc2n[nH]c3c2CCCC3)C(=O)Nc2ccc(F)c(Cl)c2)cn1 [Example 42, 3-(3-chloro-4-fluorophenyl)-1-(6-methoxypyridin-3-yl)-1-((4,5,6,7-tetrahydro-1H-indazol-3-yl)methyl)urea]
Intracellular HBV DNA
  IC50: 0.037 µM
[1]
  CC50 at 65 h: > 100 µM
  viability at 65 h, 100 µM: 99.5%
Protein
  EC50: 4.3 µM
  inhibition at 3 µM: 13%

## COc1ccc(N(Cc2n[nH]c3c2CCCC3)C(=O)Nc2ccc(F)c(Cl)c2)cc1OC [Example 116, 3-(3-chloro-4-fluorophenyl)-1-(3,4-dimethoxyphenyl)-1-((4,5,6,7-tetrahydro-1H-indazol-3-yl)methyl)urea]
Intracellular HBV DNA
  IC50: > 1.1 µM
[1]
  CC50 at 65 h: > 100 µM
  viability at 65 h, 100 µM: 104%
Protein
  inhibition at 30 µM: 69.5%

## COc1ccc(N(Cc2n[nH]c3c2COCC3)C(=O)Nc2ccc(F)c(Cl)c2)cc1 [Example 38, 3-(3-chloro-4-fluorophenyl)-1-(4-methoxyphenyl)-1-((1,4,6,7-tetrahydropyrano[4,3-c]pyrazol-3-yl)methyl)urea]
Intracellular HBV DNA
  IC50: 0.018 µM
[1]
  CC50 at 65 h: > 100 µM
  viability at 65 h, 100 µM: 104%
Protein
  EC50: 1.6 µM
  inhibition at 30 µM: 80%

## COc1ccc(N(Cc2n[nH]c3c2CCC3)C(=O)Nc2ccc(F)c(Cl)c2)cn1 [Example 41, 3-(3-chloro-4-fluorophenyl)-1-(6-methoxypyridin-3-yl)-1-((1,4,5,6-tetrahydrocyclopenta[c]pyrazol-3-yl)methyl)urea]
Intracellular HBV DNA
  IC50: 0.018 µM
[1]
  CC50 at 65 h: > 100 µM
  viability at 65 h, 100 µM: 97.8%
Protein
  EC50: 2.6 µM
  inhibition at 3 µM: 59%

## COc1ccc(N(Cc2n[nH]c3c2CC(C)(C)CC3)C(=O)Nc2ccc(F)c(Cl)c2)cn1 [Example 47, 3-(3-chloro-4-fluorophenyl)-1-((5,5-dimethyl-4,5,6,7-tetrahydro-1H-indazol-3-yl)methyl)-1-(6-methoxypyridin-3-yl)urea]
Intracellular HBV DNA
  IC50: 0.99 µM
[1]
  CC50 at 65 h: > 100 µM
  viability at 65 h, 100 µM: 50.7%
Protein
  EC50: 9.6 µM
  inhibition at 30 µM: 95.3%

## COc1ccc(N(Cc2n[nH]c3c2CC(C(F)(F)F)CC3)C(=O)Nc2ccc(F)c(Cl)c2)cn1 (stereo not drawn) [Example 62, 3-(3-chloro-4-fluorophenyl)-1-(6-methoxypyridin-3-yl)-1-((5-(trifluoromethyl)-4,5,6,7-tetrahydro-1H-indazol-3-yl)methyl)urea]
Intracellular HBV DNA
  IC50: 0.2 µM
[1]
  CC50 at 65 h: 86.7 µM
  viability at 65 h, 100 µM: 6.5%
Protein
  EC50: 6.9 µM
  inhibition at 30 µM: 100%

Reference: patent US20250009742A1 (priority 2021, published 2025)
